Reference: patent publication US8722910B2, “Diyne compositions” (Evolva AG, priority 2009, dated 2014)
Values after ≈ are worked out from the molar mass of the structure shown. Read-outs that look alike come from different tables or passages of the source. Blank lines part the entries; values can stand above or below the compound they belong to. Numbered stars: 1 amine (or outer) side, 2 acyl side, 3 side chain; on linkers, the order of the positions; unused ones are H or OH. Bridge positions count the residues as written; N and C are the ends. Square brackets hold non-standard residues; d marks the D form. Peptide text beside a SMILES is read from it. * marks the point of attachment. Orn(4R-OH,5R-OH) = O=C([C@H](C[C@@H](O)[C@@H](O)N[*:3])N[*:1])[*:2]; hTyr(3S-OH,4S-OH) = N[C@H](C(=O)O)[C@H](O)[C@@H](O)c1ccc(O)cc1; Pro(3S-OH,4S-Me) = C[C@H]1CN[C@H](C(=O)O)[C@H]1O; Benzoyl(4-octyloxy) = CCCCCCCCOc1ccc(C(=O)*)cc1; Hyp = O=C(O)[C@@H]1C[C@@H](O)CN1

Legend:
C. albicans SC5314 [1] = assay: MIC versus reference Candida strains (broth micro dilution); format: cell-based
C. albicans ATCC-24433 = assay: as above; details: Candida albicans, ATCC24433
C. albicans ATCC-90028 = assay: as above; details: Candida albicans, ATCC90028
C. glabrata ATCC-90030 = assay: as above; details: Nakaseomyces glabratus, ATCC90030
C. krusei ATCC-6258 = assay: as above; details: Pichia kudriavzevii, ATCC6258
[2] = tested on: C. parapsilosis ATCC-22019; assay: as above; details: Lodderomyces parapsilosis, ATCC22019
[3] = tested on: C. parapsilosis ATCC-90018; assay: as above; details: Lodderomyces parapsilosis, ATCC90018
C. tropicalis ATCC-750 = assay: as above; details: Candida tropicalis, ATCC750
S. cerevisiae = assay: Doubling times of S. cerevisiae; format: cell-based; details: 10 μg/ml oleic acid alone
Protocol: S. cerevisiae was cultured in the presence of 1 and 10 μg/ml of the potassium salt, 10 μg/ml oleic acid and 1 μg/ml of the potassium salt combined with 10 μg/ml oleic acid.
When S. cerevisiae was cultured in the presence of 1 and 10 μg/ml compound IV″, the doubling times increased to 2.4 h and 4.2 h, respectively, compared to 2 h for the untreated control. The addition of 10 μg/ml oleic acid, sodium salt, to 1 μg/ml compound IV″ reversed the doubling time to 2 h as observed for the untreated control or 10 μg/ml oleic acid, sodium salt alone.

OLE1 = OLE1 expression by real time PCR; format: cell-based, S. cerevisiae; details: 10 μg/ml oleic acid alone
Protocol: The expression of OLE1 was determined by real time PCR 10, 60, 120 and 240 min after compound addition (Knechtle, P. and Greve, K., 2009). OLE1 transcript levels were calibrated to the expression of the tubulin gene (TUB1) and normalized to the OLE1 expression at 10 min without compound addition (FIG. 17(a)).
The expression of the OLE1 gene was determined by real time PCR 10, 60, 120 and 240 min for the conditions a.-e., as indicated in Table 3 above. OLE1 transcript levels were calibrated to the expression of the tubulin gene (TUB1) and normalized to the OLE1 expression at 10 min without compound addition. See FIG. 17a showing time dependent expressions of OLE1 in response to compound IV″. Conditions a.-e. are listed in Table 3 above, numbers indicate time intervals in minutes. Expressions of OLE1 are given as multiples of the expression at 10 min, condition a. […] 10 μg/ml oleic acid compensated for the OLE1 expression increase caused by 1 μg/ml compound IV alone. Compound IV″ dependent up-regulation of OLE1 expression thus confirms that compound IV″ is acting as an inhibitor of the Ole1 protein. The antagonistic effect of oleic acid found in the susceptibility assays, is reflected mechanistically in this experiment by a down-regulation of the target Ole1 protein through oleic acid.

Trichophyton tonsurans = assay: In vitro antifungal activity vs. dermatophytes (MIC/MFC); format: cell-based; details: 96 h; Trichophyton tonsurans (n = 15); 35° C., 4 days
T. mentagrophytes = assay: as above; format: cell-based; details: Trichophyton mentagrophytes, 96 h; T. mentagrophytes (n = 15); 35° C., 4 days
Microsporum canis = assay: as above; format: cell-based; details: 96 h; Microsporum canis (n = 15); 35° C., 4 days
T. rubrum = assay: as above; format: cell-based; details: Trichophyton rubrum, 96 h; T. rubrum (n = 15); 35° C., 4 days
Epidermophyton floccosum = assay: as above; format: cell-based; details: 96 h; Epidermophyton floccosum (n = 15); 35° C., 4 days
[4] = tested on: T. rubrum, Terbinafine resistant isolates; assay: as above; format: cell-based; details: Trichophyton rubrum, 96 h; T. rubrum (TERB-resistant) (n = 9); 35° C., 4 days
M. cookie = assay: as above; format: cell-based; details: 96 h; M. cookie (n = 1); 35° C., 4 days
M. vanbreuseghemii = assay: as above; format: cell-based; details: 96 h; M. vanbreuseghemii (n = 1); 35° C., 4 days
M. gypseum = assay: as above; format: cell-based; details: Nannizzia gypsea, 96 h; M. gypseum (n = 1); 35° C., 4 days
T. terrestre = assay: as above; format: cell-based; details: 96 h; T. terrestre (n = 1); 35° C., 4 days
M. gallinae = assay: as above; format: cell-based; details: 96 h; M. gallinae (n = 1); 35° C., 4 days
all dermatophyte strains = assay: MIC and MFC range over all dermatophyte strains tested; format: cell-based, dermatophytes; details: Table 14 strains
ergosterol biosynthesis = assay: 13C-acetate incorporation into ergosterol; format: cell-based, Candida albicans; details: drug at about its MIC, added after the first 15 minutes
C. albicans DSY1024 = assay: IC50 (50% growth inhibition) of diyne compounds; format: cell-based; details: Candida albicans, DSY1024, read-out: C. albicans IC50
Protocol: (§1) The inhibition is partly measured by minimum inhibitory and minimum fungicidal concentration (MIC and MFC, respectively) and partly as IC50 (i.e. concentration required for 50% inhibition).
(§2) IC50 against two different S. cerevisiae strains and two different C. albicans strains by a number of diyne compounds was determined and the results are shown in Table 17.

C. albicans SC5314 [5] = assay: IC50 (50% growth inhibition) of diyne compounds; format: cell-based; details: Candida albicans; strain SC5314
Protocol: as §1, §2

S. cerevisiae 2229-5C = assay: IC50 (50% growth inhibition) of diyne compounds; format: cell-based; details: strain 2229-5C; for IC50: Saccharomyces cerevisiae, 22295C; for value in brackets after the IC50 bound (not explained): at the bound concentration
Protocol: as §1, §2

S. cerevisiae AD1-9 = assay: IC50 (50% growth inhibition) of diyne compounds; format: cell-based; details: strain AD1-9; for IC50: Saccharomyces cerevisiae, AD19
Protocol: as §1, §2

Chitin Synthase = assay: Inhibition of fungal cell wall synthesis enzymes; format: biochemical; details: 9.9 μg/ml
Text: (§3) Specific inhibitors of each enzyme served as positive controls (Cilofungin, a β-glucan synthase inhibitor and nikkomycin Z, a chitin synthase inhibitor).

Candida albicans = assay: In vitro fungicidal activity vs. Candida albicans; details: Candida albicans
(1,3)β-Glucan Synthase = assay: Inhibition of fungal cell wall synthesis enzymes; format: biochemical; details: 20.6 μg/ml
Text: as §3

MIC (C. albicans SC5314 [1]): > 10.2 µg/mL
MIC (C. albicans ATCC-24433): > 10.2 µg/mL
MIC (C. albicans ATCC-90028): > 10.2 µg/mL
MIC (C. glabrata ATCC-90030): > 10.2 µg/mL
MIC (C. krusei ATCC-6258): > 10.2 µg/mL
MIC [2]: > 10.2 µg/mL
MIC [3]: > 10.2 µg/mL
MIC (C. tropicalis ATCC-750): > 10.2 µg/mL
SMILES: O=C(O)CCCCCCCc1ccccc1C#CC#Cc1ccco1 [VII″, 8-(2-(4-(furan-2-yl)buta-1,3-diynyl)phenyl)octanoic acid]

MIC (C. albicans SC5314 [1]): > 10.2 µg/mL
MIC (C. albicans ATCC-24433): > 10.2 µg/mL
MIC (C. albicans ATCC-90028): > 10.2 µg/mL
MIC (C. glabrata ATCC-90030): > 10.2 µg/mL
MIC (C. krusei ATCC-6258): > 10.2 µg/mL
MIC [2]: > 10.2 µg/mL
MIC [3]: > 10.2 µg/mL
MIC (C. tropicalis ATCC-750): > 10.2 µg/mL
SMILES: Cc1cc(C#CC#C/C=C\CCCCCCCC(=O)O)oc1C [VI″, (Z)-14-(4,5-dimethylfuran-2-yl)tetradeca-9-en-11,13-diynoic acid]

SMILES: CCCCCCCC/C=C\CCCCCCCC(=O)O [oleic acid, reference compound]
Doubling time (S. cerevisiae): 2.0 h
Doubling time (S. cerevisiae; sodium salt): 2 h
decrease of the expression level of OLE1 (OLE1): about 6 fold

MIC (Trichophyton tonsurans): 0.008 µg/mL (≈ 0.0275 µM)
MIC (T. mentagrophytes): 0.008 µg/mL (≈ 0.0275 µM)
MIC (Microsporum canis): 0.015 µg/mL (≈ 0.0515 µM)
MIC (T. rubrum): 0.002 µg/mL (≈ 0.00686 µM)
MIC (Epidermophyton floccosum): 0.015 µg/mL (≈ 0.0515 µM)
MIC [4]: 4 µg/mL (≈ 13.7 µM)
MIC (M. cookie): 0.008 µg/mL (≈ 0.0275 µM)
MIC (M. vanbreuseghemii): 0.015 µg/mL (≈ 0.0515 µM)
MIC (M. gypseum): 0.004 µg/mL (≈ 0.0137 µM)
MIC (T. terrestre): 0.008 µg/mL (≈ 0.0275 µM)
MIC (M. gallinae): 0.008 µg/mL (≈ 0.0275 µM)
MIC range against all dermatophyte strains (all dermatophyte strains): 0.002 to 4 µg/mL
SMILES: CN(C/C=C/C#CC(C)(C)C)Cc1cccc2ccccc12 [Terbinafine, reference compound]
net biosynthesis of ergosterol (13C-acetate incorporation) (ergosterol biosynthesis): inhibited the incorporation of acetate into ergosterol

SMILES: O=C(O)CCCCCCC/C=C/C#CC#Cc1ccco1 [VIII″, (E)-14-(furan-2-yl)tetradeca-9-en-11,13-diynoic acid]
MIC (C. albicans SC5314 [1]): 0.15 µg/mL (≈ 0.528 µM)
IC50 (C. albicans DSY1024): 0.004 µg/mL (≈ 0.0141 µM)
IC50 (C. albicans SC5314 [5]): 3 µg/mL (≈ 10.6 µM)
IC50 (S. cerevisiae 2229-5C): 2.7 µg/mL (≈ 9.5 µM)
IC50 (S. cerevisiae AD1-9): 0.4 µg/mL (≈ 1.41 µM)

SMILES: O=C(O)CCCCCC/C=C\C#CC#Cc1ccco1 [(Z)-13-(furan-2-yl)trideca-8-en-10,12-diynoic acid]
IC50 (C. albicans DSY1024): 0.5 µg/mL (≈ 1.85 µM)
IC50 (C. albicans SC5314 [5]): > 200 µg/mL
IC50 (S. cerevisiae 2229-5C): > 200 µg/mL
value in brackets after the IC50 bound (not explained) (S. cerevisiae 2229-5C): 25%
IC50 (S. cerevisiae AD1-9): ~50 µg/mL (≈ 185 µM)

SMILES: CCOC(=O)CCCCCCC/C=C\C#CC#Cc1ccco1 [(Z)-ethyl 14-(furan-2-yl)tetradeca-9-en-11,13-diynoate]
IC50 (C. albicans SC5314 [5]): 9 µg/mL (≈ 28.8 µM)
IC50 (S. cerevisiae 2229-5C): 8.9 µg/mL (≈ 28.5 µM)
IC50 (S. cerevisiae AD1-9): 0.7 µg/mL (≈ 2.24 µM)

SMILES: C[C@@H]([C@H](N)C(=O)N[C@H](C(=O)O)[C@H]1O[C@@H](n2ccc(=O)[nH]c2=O)[C@H](O)[C@@H]1O)[C@H](O)c1ccc(O)cn1 [Nikkomycin Z, reference compound]
% Inhibition, Chitin Synthase (Chitin Synthase): 61%

SMILES: CC(=O)N1CCN(c2ccc(OCC3COC(Cn4ccnc4)(c4ccc(Cl)cc4Cl)O3)cc2)CC1 (stereo not drawn) [Ketoconazole]
Fungicidal Concentration (Candida albicans): >800,000 ng/ml
MIC90 (Candida albicans; 24 h, read-out: MIC90 24 h): 50 µg/mL (≈ 94.1 µM)
MIC90 (Candida albicans; 48 h, read-out: MIC90 48 h): > 800 µg/mL

SMILES: COC(=O)CCCCCCC/C=C\C#CC#Cc1ccco1 [(Z)-methyl 14-(furan-2-yl)tetradeca-9-en-11,13-diynoate]
IC50 (C. albicans DSY1024): 0.19 µg/mL (≈ 0.637 µM)
IC50 (C. albicans SC5314 [5]): 0.4 µg/mL (≈ 1.34 µM)
IC50 (S. cerevisiae 2229-5C): > 0.4 µg/mL
value in brackets after the IC50 bound (not explained) (S. cerevisiae 2229-5C): 4%
IC50 (S. cerevisiae AD1-9): > 0.4 µg/mL
value in brackets after the IC50 bound (not explained) (S. cerevisiae AD1-9; at the bound concentration): 6%

SMILES: Nc1nc(=O)[nH]cc1F [5-fluorocytosine]
Fungicidal Concentration (Candida albicans): 1563 ng/mL
MIC90 (Candida albicans; 24 h, read-out: MIC90 24 h): 0.098 µg/mL (≈ 0.759 µM)
MIC90 (Candida albicans; 48 h, read-out: MIC90 48 h): 0.195 µg/mL (≈ 1.51 µM)

SMILES: O=C(O)CCCCC/C=C\C#CC#Cc1ccco1 [(Z)-12-(furan-2-yl)dodeca-7-en-9,11-diynoic acid]
IC50 (C. albicans DSY1024): 1.8 µg/mL (≈ 7.02 µM)
IC50 (C. albicans SC5314 [5]): 50 µg/mL (≈ 195 µM)
IC50 (S. cerevisiae 2229-5C): ~50 µg/mL (≈ 195 µM)
IC50 (S. cerevisiae AD1-9): ~6.25 µg/mL (≈ 24.4 µM)

SMILES: CCCCCCCCOc1ccc(C(=O)N[C@H]2C[C@@H](O)[C@@H](O)NC(=O)[C@@H]3[C@@H](O)[C@@H](C)CN3C(=O)[C@H]([C@@H](C)O)NC(=O)[C@H]([C@H](O)[C@@H](O)c3ccc(O)cc3)NC(=O)[C@@H]3C[C@@H](O)CN3C(=O)[C@H]([C@@H](C)O)NC2=O)cc1 [Cilofungin, reference compound] ({Benzoyl(4-octyloxy)}-[Orn(4R-OH,5R-OH)]T[Hyp][hTyr(3S-OH,4S-OH)]T[Pro(3S-OH,4S-Me)]; lactam 1-C)
% Inhibition, (1,3)β-Glucan Synthase ((1,3)β-Glucan Synthase): 51%

SMILES: C[C@@H]1C[C@@H]([C@H](O)CC2CC(=O)NC(=O)C2)C(=O)[C@@H](C)C1 [Cycloheximide]
Fungicidal Concentration (Candida albicans): 12,800,000 ng/ml
MIC90 (Candida albicans; 24 h, read-out: MIC90 24 h): 1600 µg/mL (≈ 5690 µM)
MIC90 (Candida albicans; 48 h, read-out: MIC90 48 h): 12800 µg/mL (≈ 45500 µM)
